Experimental data: patent US11913031B2, “Method to reproduce circadian rhythms on a microfluidic chip” (Yissum Research Development Company of the Hebrew …, priority 2017, dated 2024)

Key:
[1] = system: HepG2/C3A cells; type: cell-based
Description: FIGS. 11A-E—FIG. 11A—System schematic. FIG. 11B—Oxygen-quenched decay causes phase shift between the intensity-modulated excitation and emission light. Two-superimposed frequencies were used to screen out background interference. FIG. 11C—Fluorescence image of HepG2/C3A cells and sensor particles after immobilization in a collagen matrix.
Real-time focus independent measurement of oxygen uptake in microfluidic bioreactor: Oxygen uptake is a critical measurement of mitochondrial function and metabolic activity^35, 36. However, electrochemical electrodes require frequent re-calibration, while optical sensors are affected by small changes in focus, cell migration and stage movement, making them unreliable for real time measurements of oxygen uptake. Therefore, the present inventor designed an optical system in which organoids are embedded with nanoprobes containing RuP dye and excited at 532 nm (FIGS. 11A-E). Oxygen is a quencher of RuP phosphorescence, leading to a decrease in decay time. Importantly, decay time is not sensitive to changes in probe concentration or excitation intensity (i.e. cell migration, mechanical movement). To measure in real-time, the present inventor used a novel two-frequency sinusoidal intensity-modulated light, allowing us to filter background interference while measuring phase shift in the emitted light.

[2] = system: HeLa cells; experiment: Acetaminophen loss of mitochondrial respiration repeated in HeLa cells; type: cell-based
[3] = system: liver; details: Table 4 compound list, toxicological end-point; cited from earlier work
[4] = system: E6/E7low 653 hepatocytes; experiment: Circadian gene expression (RNA sequencing, JTK_CYCLE) after dexamethasone entrainment, line 653; type: cell-based, human; details: 100 μM (day medium), 24±4 hours period, adjusted p-values less than 0.005
Experimental: (§1) E6/E7^low Upcyte™ hepatocytes line 422, from a donor, and line 653, from an old donor, were seeded in OSM-free differentiation media as previously described (Levy et al. Nature Biotechnology 2015). Following 5 days of differentiation, cells were synchronized in corticosteroid-free culture medium for 24 hours, followed by high 100 μM Dexamethasone dose (day medium), entraining a circadian cycle. Triplicate cell-lysate and media samples were collected every 4 hours in the following 2 days. RNA was extracted from lysate samples, using NucleoSpin® RNA (Qiagen, Valencia, Calif.) according to manufacturer's direction. RNA were further reverse-transcribed to increase stability of the molecules and tagmented with in-house produced primers containing unique-per-molecule tags along with unique-per-sample tag, using an in-house developed TN5 enzyme. […] Library construction was conducted using Illumina TruSeq RNA Library Prep V2 Kit (Illumina, San Diego, Calif.) according to manufacturer's protocol and sequenced on Illumina NextSeq500 with single-end, 86 bp reads using the High Output V2 Kit. Sequencing reads were filtered to unique reads only and mapped to the UCSC human transcriptome (genome build hg38) using Bowtie 2. Expression levels of all genes were quantified using bedtools. […]

[5] = system: E6/E7low 422 hepatocytes; experiment: Circadian gene expression (RNA sequencing, JTK_CYCLE) after dexamethasone entrainment, line 422; type: cell-based, human; details: 100 μM (day medium), 24±4 hours period, adjusted p-values less than 0.005
Experimental: as §1

[6] = system: E6/E7 hepatocytes; experiment: Conditional proliferation and EMT of E6/E7 human hepatocytes
[7] = system: human hepatocytes; experiment: Lipid accumulation in human hepatocytes; type: cell-based
Experimental: The present inventor uses IR-spectroscopy to track this metabolic signature in real time. Wild type and CRY1/2 knockout hepatocytes are perfused with (1) all hormones and factors (FIGS. 17A-B), or with time-average concentrations of (2) melatonin, (3) cortisol, (4) T3, (5) growth hormone, and (6) average temperature. Signature is analysed by IR-spectroscopy every 30 min for 24 hours. IR-spectra is critically compared to intracellular metabolites quantified by LC-MS/MS, as well as specific quantification of triglycerides and bile acids using commercially available kits (FIGS. 16A-F). […] Mechanism is evaluated by systematically perturbing regulators whose activity changed prior to steatosis.

In the case of `CC(=O)Nc1ccc(O)cc1` [Acetaminophen], the “effect on oxygen uptake over time” value [1] is reported as “immediate, reversible, dose-dependent loss of oxygen uptake followed by a slow, irreversible, dose-independent death”, the “time at which immediate dose-dependent loss of oxygen uptake concludes” value ([1]; human) is reported as 60 min and the “time to total cell death (slow dose-independent loss of oxygen uptake)” value ([1]; human) is reported as 3 to 5 days. For the same molecule, the “transient loss of mitochondrial respiration in cells that lack CYP2E1 and 3A4” value [2] was “repeated in HeLa cells” and the Toxicity [3] was “Apoptosis”.

For `CC(=O)Oc1ccccc1C(=O)O` [Aspirin], the Toxicity [3] is given as “Steatosis”.

In the case of `CN(C)CCCN1c2ccccc2Sc2ccc(Cl)cc21` [Chlorpromazine], the Toxicity [3] is listed as “Cholestasis”.

In the case of `C[C@@H]1C[C@H]2[C@@H]3CCC4=CC(=O)C=C[C@]4(C)[C@@]3(F)[C@@H](O)C[C@]2(C)[C@@]1(O)C(=O)CO` [Dexamethasone, 9α-fluoro-11β,17α,21-trihydroxy-16α-methylpregna-1,4-diene-3,20-dione], the “genes with circadian expression pattern” value [4] is reported as 41 genes and the “genes with circadian expression pattern” value [5] is reported as 267 genes.

In the case of `Cc1c(C)c2c(c(C)c1O)CCC(C)(COc1ccc(CC3SC(=O)NC3=O)cc1)O2` (centres unmarked) [Troglitazone], the Toxicity [3] is given as “Cholestasis”.

For `N#CC(=C(/N)Sc1ccccc1N)/C(C#N)=C(\N)Sc1ccccc1N` [U0126], the “Epithelial-to-mesenchymal transition (EMT)” value [6] was “blocked” and the “epithelial morphology and cell polarization” value [6] was “stabilizing epithelial morphology and cell polarization”.

With `COc1ccc2[nH]cc(CCNC(C)=O)c2c1` [melatonin, Melatonin] the lipid accumulation [7] was “induce lipid accumulation”.

B1: Oncostatin m (protein, UniProt P13725 26-221, looked up)
Oncostatin-M: AAIGSCSKEYRVLLGQLQKQTDLMQDTSRLLDPYIRIQGLDVPKLREHCRERPGAFPSEETLRGLGRRGFLQTLNATLGCVLHRLADLEQRLPKAQDLERSGLNIEDLEKLQMARPNILGLRNNIYCMAQLLDNSDTAEPTKAGRGASQPPTPTPASDAFQRKLEGCRFLHGYHRFMHSVGRVFSKWGESPNRSRR
With B1 the “doubling time of Jak-STAT3 dependent proliferation” value ([6]; OSM stimulation) was 40 h.
